Toxic doses and inconclusive results are not listed. The calls were made as follows: active = survival T/C of 150% or more; inactive = T/C below 125% in these data.
System: P388 leukemia ip, CD2F1 mice, survival T/C
Test: NCI In Vivo Anticancer Drug Screen. Data for tumor model P388 Leukemia (intraperitoneal) in CD2F1 (CDF1) mice
Settings: endpoint: median survival time, higher = longer survival
Outline: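 Mice carrying the transplanted tumor received test compound or vehicle. Survival was recorded in each group, and the value is the treated-group measurement divided by that of the vehicle-treated control group.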

[1] = dose: 100.0 mg/kg/injection, schedule: Q04DX002 (ip), vehicle: saline with Tween-80
[2] = dose: 200.0 mg/kg/injection, schedule: Q04DX002 (ip), vehicle: saline with Tween-80
[3] = dose: 400.0 mg/kg/injection, schedule: Q04DX002 (ip), vehicle: saline with Tween-80
[4] = dose: 60.0 mg/kg/injection, schedule: Q01DX005 (ip), vehicle: saline with Tween-80
[5] = dose: 120.0 mg/kg/injection, schedule: Q01DX005 (ip), vehicle: saline with Tween-80
[6] = dose: 240.0 mg/kg/injection, schedule: Q01DX005 (ip), vehicle: saline with Tween-80
[7] = dose: 100.0 mg/kg/injection, schedule: Q01DX009 (ip), vehicle: saline with Tween-80
[8] = dose: 200.0 mg/kg/injection, schedule: Q01DX009 (ip), vehicle: saline with Tween-80

Measured: T/C

Oc1ccc(C2c3ccccc3Oc3ccccc32)c2ccccc12
inactive: dose: 100.0 mg/kg/injection, schedule: Q01DX001 (ip), vehicle: gum acacia 93 % of control | dose: 200.0 mg/kg/injection, schedule: Q01DX001 (ip), vehicle: gum acacia 105 % of control | dose: 400.0 mg/kg/injection, schedule: Q01DX001 (ip), vehicle: gum acacia 101 % of control

Cc1cc(NC(=O)c2ccccc2O)n(-c2ccccc2)n1
inactive: dose: 100.0 mg/kg/injection, schedule: Q01DX001 (ip), vehicle: saline with Tween-80 97 % of control | dose: 200.0 mg/kg/injection, schedule: Q01DX001 (ip), vehicle: saline with Tween-80 100 % of control | dose: 400.0 mg/kg/injection, schedule: Q01DX001 (ip), vehicle: saline with Tween-80 95 % of control

O=C1NCCN=C1Cc1ccccc1
inactive: [1] 93 % of control | [2] 100 % of control | [3] 95 % of control

CCOc1ccc(N2C(=O)C(=O)C(C#N)(c3nc4ccccc4o3)C(=O)C2=O)cc1
inactive: [4] 98 % of control | [5] 104 % of control | [6] 105 % of control

CCN(C)c1nc(N(C)C)nc(N(C)C)n1
inactive: dose: 50.0 mg/kg/injection, schedule: Q04DX002 (ip), vehicle: saline with Tween-80 100 % of control | dose: 50.0 mg/kg/injection, schedule: Q04DX002 (ip), vehicle: saline 109 % of control | [1] 107 % of control | dose: 100.0 mg/kg/injection, schedule: Q04DX002 (ip), vehicle: saline 110 % of control | [2] 100 % of control | dose: 200.0 mg/kg/injection, schedule: Q04DX002 (ip), vehicle: saline 109 % of control

O=C1CCCc2c1cc(C1CCCC1)c1ccccc21
inactive: dose: 60.0 mg/kg/injection, schedule: Q01DX005 (ip), vehicle: Klucel (hydroxypropylcellulose) (HPC) 104 % of control | dose: 120.0 mg/kg/injection, schedule: Q01DX005 (ip), vehicle: Klucel (hydroxypropylcellulose) (HPC) 94 % of control | dose: 240.0 mg/kg/injection, schedule: Q01DX005 (ip), vehicle: Klucel (hydroxypropylcellulose) (HPC) 101 % of control

COc1ccc(C2=C(Cl)C(=O)N(c3ccccc3C)C(=O)C2(Cl)Cl)cc1
inactive: dose: 100.0 mg/kg/injection, schedule: Q04DX002 (ip), vehicle: Klucel (hydroxypropylcellulose) (HPC) 101 % of control | dose: 200.0 mg/kg/injection, schedule: Q04DX002 (ip), vehicle: Klucel (hydroxypropylcellulose) (HPC) 112 % of control | dose: 400.0 mg/kg/injection, schedule: Q04DX002 (ip), vehicle: Klucel (hydroxypropylcellulose) (HPC) 117 % of control

O=C(Nc1ccc(C(=O)Nc2cc(S(=O)(=O)O)cc3cc(S(=O)(=O)O)cc(O)c23)cc1)c1ccccc1
inactive: [7] 98 % of control | [8] 106 % of control | dose: 400.0 mg/kg/injection, schedule: Q01DX009 (ip), vehicle: saline with Tween-80 103 % of control

CN=C(N)NN
inactive: dose: 25.0 mg/kg/injection, schedule: Q01DX009 (ip), vehicle: saline 101 % of control | dose: 50.0 mg/kg/injection, schedule: Q01DX009 (ip), vehicle: saline 97 % of control | dose: 100.0 mg/kg/injection, schedule: Q01DX009 (ip), vehicle: saline 93 % of control | dose: 200.0 mg/kg/injection, schedule: Q01DX009 (ip), vehicle: saline 97 % of control

CN=S(=O)(c1ccccc1)C1(C)CC(C)=C(C)CS1=O (stereo not drawn)
inactive: dose: 60.0 mg/kg/injection, schedule: Q01DX005 (ip), vehicle: saline 94 % of control | dose: 120.0 mg/kg/injection, schedule: Q01DX005 (ip), vehicle: saline 97 % of control | dose: 240.0 mg/kg/injection, schedule: Q01DX005 (ip), vehicle: saline 103 % of control

O=C1CSC(=S)N1Cc1ccncc1
inactive: dose: 50.0 mg/kg/injection, schedule: Q01DX009 (ip), vehicle: saline with Tween-80 97 % of control | [7] 98 % of control | [8] 101 % of control

CCOC(C)OCCCI (stereo not drawn)
inactive: [4] 105 % of control | [5] 101 % of control | [6] 105 % of control

Cc1noc(C)c1C1(Br)C(Br)CCCC1Br (stereo not drawn)
inactive: [1] 105 % of control | [2] 104 % of control | [3] 114 % of control

From PubChem BioAssay AID330 (DTP/NCI, 2004)
